What was measured:
ALK = ALK (Homo sapiens, UniProt Q9UM73); conditions: 1 µM; binder
AURKA = AURKA (Homo sapiens, UniProt O14965); conditions: 1 µM; binder
CAMK2G = CAMK2G (Homo sapiens, UniProt Q13555); conditions: 1 µM; binder
CDK4-cyclinD1 = CDK4-cyclinD1 (Homo sapiens, UniProt P11802); conditions: 1 µM; binder
CSNK1G2 = CSNK1G2 (Homo sapiens, UniProt P78368); conditions: 1 µM; binder
EGFR(L858R,T790M) = EGFR(L858R,T790M) (Homo sapiens, UniProt P00533, L858R/T790M); conditions: 1 µM; binder
EPHB6 = EPHB6 (Homo sapiens, UniProt O15197); conditions: 1 µM; binder
Sequence of EPHB6 (O15197 whole entry): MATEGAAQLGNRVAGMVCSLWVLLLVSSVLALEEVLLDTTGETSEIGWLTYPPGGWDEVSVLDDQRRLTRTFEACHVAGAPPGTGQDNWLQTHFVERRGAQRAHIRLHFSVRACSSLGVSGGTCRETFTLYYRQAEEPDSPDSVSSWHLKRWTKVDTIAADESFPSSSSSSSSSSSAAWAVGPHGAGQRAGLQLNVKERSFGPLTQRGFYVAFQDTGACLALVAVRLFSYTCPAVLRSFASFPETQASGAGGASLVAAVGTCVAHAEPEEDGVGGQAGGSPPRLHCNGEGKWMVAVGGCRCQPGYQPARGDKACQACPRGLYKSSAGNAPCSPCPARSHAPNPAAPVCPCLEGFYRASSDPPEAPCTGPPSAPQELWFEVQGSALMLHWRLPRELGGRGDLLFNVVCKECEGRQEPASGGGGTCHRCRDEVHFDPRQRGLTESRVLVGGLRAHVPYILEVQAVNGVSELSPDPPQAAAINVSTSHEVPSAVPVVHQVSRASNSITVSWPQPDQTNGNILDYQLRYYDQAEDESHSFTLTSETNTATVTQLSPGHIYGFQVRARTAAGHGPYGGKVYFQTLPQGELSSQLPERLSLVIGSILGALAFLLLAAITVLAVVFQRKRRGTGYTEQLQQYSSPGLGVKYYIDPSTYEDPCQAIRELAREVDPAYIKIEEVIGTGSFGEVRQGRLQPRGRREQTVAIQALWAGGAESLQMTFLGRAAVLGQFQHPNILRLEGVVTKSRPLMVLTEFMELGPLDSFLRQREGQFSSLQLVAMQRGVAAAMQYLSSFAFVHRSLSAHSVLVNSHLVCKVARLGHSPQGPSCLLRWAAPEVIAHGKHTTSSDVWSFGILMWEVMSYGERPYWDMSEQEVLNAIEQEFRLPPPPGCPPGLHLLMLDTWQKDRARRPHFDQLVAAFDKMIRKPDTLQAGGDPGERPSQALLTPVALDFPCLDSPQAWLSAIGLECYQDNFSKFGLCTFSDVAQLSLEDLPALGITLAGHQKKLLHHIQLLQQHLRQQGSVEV

ERK8 = ERK8 (Homo sapiens, UniProt Q8TD08); conditions: 1 µM; binder
Sequence of ERK8 (Q8TD08 whole entry): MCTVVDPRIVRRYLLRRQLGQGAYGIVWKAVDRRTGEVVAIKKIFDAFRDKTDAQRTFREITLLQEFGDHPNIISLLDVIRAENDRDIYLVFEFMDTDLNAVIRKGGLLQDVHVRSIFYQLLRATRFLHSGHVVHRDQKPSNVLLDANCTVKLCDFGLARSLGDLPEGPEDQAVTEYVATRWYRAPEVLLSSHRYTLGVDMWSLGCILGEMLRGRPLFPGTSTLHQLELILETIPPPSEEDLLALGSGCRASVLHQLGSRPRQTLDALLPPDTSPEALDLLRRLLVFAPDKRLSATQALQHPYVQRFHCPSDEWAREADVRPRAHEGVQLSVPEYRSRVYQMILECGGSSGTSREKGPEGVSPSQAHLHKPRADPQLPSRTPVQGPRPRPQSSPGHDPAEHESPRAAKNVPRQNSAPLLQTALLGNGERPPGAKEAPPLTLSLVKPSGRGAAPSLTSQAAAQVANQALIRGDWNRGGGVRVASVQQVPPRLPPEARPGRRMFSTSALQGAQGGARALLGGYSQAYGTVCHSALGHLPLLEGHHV

FLT4 = FLT4 (Homo sapiens, UniProt P35916); conditions: 1 µM; binder
GAK = GAK (Homo sapiens, UniProt O14976); conditions: 1 µM; binder
GCN2(Kin.Dom.2,S808G) = GCN2(Kin.Dom.2,S808G) (Homo sapiens, UniProt Q9P2K8, S808G); conditions: 1 µM; binder
HCK = HCK (Homo sapiens, UniProt P08631); conditions: 1 µM; binder
HIPK2 = HIPK2 (Homo sapiens, UniProt Q9H2X6); conditions: 1 µM; binder
JAK3 = JAK3 (Homo sapiens, UniProt P52333); conditions: JH1 domain catalytic; binder
MYO3A = MYO3A (Homo sapiens, UniProt Q8NEV4); conditions: 1 µM; binder
NEK10 = NEK10 (Homo sapiens, UniProt Q6ZWH5); conditions: 1 µM; binder
PAK4 = PAK4 (Homo sapiens, UniProt O96013); conditions: 1 µM; binder
PFTAIRE2 = PFTAIRE2 (Homo sapiens, UniProt Q96Q40); conditions: 1 µM; binder
Sequence of PFTAIRE2 (Q96Q40 whole entry): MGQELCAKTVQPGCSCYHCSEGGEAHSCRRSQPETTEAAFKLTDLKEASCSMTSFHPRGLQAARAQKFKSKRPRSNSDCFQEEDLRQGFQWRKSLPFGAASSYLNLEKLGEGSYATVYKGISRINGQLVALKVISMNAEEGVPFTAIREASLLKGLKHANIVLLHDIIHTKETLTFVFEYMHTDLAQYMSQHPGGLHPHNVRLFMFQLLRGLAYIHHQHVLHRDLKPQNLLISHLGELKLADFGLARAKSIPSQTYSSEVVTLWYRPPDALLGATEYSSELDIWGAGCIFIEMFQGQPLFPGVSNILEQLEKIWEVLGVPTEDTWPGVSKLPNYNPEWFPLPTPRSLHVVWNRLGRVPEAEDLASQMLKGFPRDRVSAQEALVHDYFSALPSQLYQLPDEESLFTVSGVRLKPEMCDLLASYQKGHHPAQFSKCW

PIK3CA(H1047L) = PIK3CA(H1047L) (Homo sapiens, UniProt P42336, H1047L); conditions: 1 µM; binder
Sequence of PIK3CA(H1047L) (P42336 whole entry H1047L): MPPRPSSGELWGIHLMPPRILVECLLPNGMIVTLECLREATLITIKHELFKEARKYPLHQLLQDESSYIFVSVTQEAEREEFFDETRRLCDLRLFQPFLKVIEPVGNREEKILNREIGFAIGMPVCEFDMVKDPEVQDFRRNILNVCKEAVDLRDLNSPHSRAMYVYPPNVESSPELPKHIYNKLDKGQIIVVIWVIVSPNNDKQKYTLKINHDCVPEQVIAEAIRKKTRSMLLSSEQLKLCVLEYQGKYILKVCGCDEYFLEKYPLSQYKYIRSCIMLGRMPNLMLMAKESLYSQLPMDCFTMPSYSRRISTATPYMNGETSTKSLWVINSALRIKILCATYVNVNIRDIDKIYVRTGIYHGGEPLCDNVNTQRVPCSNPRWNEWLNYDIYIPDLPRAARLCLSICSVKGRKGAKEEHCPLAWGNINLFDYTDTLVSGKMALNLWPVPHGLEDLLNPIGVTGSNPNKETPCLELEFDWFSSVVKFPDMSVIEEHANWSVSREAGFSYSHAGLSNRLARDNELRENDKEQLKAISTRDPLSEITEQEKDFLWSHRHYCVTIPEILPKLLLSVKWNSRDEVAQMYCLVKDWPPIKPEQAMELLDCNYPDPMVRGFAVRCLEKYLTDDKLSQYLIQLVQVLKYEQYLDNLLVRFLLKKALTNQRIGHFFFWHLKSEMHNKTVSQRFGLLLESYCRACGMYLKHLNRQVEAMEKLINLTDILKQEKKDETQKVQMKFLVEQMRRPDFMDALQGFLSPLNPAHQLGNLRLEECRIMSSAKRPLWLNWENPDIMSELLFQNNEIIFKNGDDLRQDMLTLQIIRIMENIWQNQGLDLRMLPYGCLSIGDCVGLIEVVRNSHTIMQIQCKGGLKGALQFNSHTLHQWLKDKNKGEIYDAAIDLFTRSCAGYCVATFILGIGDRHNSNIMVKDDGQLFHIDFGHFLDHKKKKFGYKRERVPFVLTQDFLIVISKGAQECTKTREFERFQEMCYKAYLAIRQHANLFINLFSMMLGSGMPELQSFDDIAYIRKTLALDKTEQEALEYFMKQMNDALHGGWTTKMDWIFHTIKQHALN

PKN2 = PKN2 (Homo sapiens, UniProt Q16513); conditions: 1 µM; binder
Sequence of PKN2 (Q16513 whole entry): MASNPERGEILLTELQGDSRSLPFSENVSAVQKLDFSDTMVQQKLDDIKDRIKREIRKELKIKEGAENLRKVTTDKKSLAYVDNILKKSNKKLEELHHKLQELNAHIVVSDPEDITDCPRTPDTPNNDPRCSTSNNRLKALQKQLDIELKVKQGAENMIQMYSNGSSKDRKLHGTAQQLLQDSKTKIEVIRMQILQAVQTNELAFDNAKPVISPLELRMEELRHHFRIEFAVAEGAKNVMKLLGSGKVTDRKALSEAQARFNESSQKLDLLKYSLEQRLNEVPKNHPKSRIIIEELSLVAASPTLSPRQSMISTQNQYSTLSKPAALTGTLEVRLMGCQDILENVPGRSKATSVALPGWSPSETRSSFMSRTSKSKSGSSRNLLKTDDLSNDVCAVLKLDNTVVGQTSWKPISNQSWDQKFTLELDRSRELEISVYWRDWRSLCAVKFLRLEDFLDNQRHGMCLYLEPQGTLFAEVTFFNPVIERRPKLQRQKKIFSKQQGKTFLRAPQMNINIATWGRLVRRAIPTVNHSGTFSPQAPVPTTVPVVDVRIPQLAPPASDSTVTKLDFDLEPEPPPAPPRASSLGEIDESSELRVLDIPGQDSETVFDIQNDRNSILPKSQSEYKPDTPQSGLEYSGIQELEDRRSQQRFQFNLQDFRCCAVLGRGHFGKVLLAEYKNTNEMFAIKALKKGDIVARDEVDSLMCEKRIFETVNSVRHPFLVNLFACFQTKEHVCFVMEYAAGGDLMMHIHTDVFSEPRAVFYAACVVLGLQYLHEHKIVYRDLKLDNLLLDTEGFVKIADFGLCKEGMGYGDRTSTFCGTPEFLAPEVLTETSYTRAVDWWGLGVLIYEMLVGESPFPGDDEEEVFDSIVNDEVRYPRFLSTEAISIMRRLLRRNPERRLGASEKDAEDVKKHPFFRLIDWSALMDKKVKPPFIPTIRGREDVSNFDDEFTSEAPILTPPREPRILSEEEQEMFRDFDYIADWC

PRKCI = PRKCI (Homo sapiens, UniProt P41743); conditions: 1 µM; binder
PRKG1 = PRKG1 (Homo sapiens, UniProt Q13976); conditions: 1 µM; binder
Sequence of PRKG1 (Q13976 whole entry): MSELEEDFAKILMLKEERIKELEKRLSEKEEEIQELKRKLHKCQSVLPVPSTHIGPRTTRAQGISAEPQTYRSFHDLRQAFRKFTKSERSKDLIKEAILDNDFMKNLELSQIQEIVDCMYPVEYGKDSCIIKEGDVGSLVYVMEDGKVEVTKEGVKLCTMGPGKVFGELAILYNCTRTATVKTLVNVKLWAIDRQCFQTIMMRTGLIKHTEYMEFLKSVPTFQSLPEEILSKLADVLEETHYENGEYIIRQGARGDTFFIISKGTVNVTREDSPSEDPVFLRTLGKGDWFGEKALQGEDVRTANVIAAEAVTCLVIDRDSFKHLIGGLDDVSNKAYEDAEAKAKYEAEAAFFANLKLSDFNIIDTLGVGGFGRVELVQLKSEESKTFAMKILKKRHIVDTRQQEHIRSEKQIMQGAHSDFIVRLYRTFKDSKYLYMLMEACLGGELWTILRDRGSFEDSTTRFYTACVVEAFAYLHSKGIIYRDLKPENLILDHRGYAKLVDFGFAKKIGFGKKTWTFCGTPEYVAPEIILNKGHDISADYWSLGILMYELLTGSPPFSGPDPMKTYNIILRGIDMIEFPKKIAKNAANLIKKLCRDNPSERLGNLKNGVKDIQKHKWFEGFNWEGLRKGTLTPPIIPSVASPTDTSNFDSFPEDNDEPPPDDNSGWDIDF

PRKG2 = PRKG2 (Homo sapiens, UniProt Q13237); conditions: 1 µM; binder
RET(M918T) = RET(M918T) (Homo sapiens, UniProt P07949, M918T); conditions: 1 µM; binder
ROS1 = ROS1 (Homo sapiens, UniProt P08922); conditions: 1 µM; binder
SNRK = SNRK (Homo sapiens, UniProt Q9NRH2); conditions: 1 µM; binder
SRMS = SRMS (Homo sapiens, UniProt Q9H3Y6); conditions: 1 µM; binder
ULK2 = ULK2 (Homo sapiens, UniProt Q8IYT8); conditions: 1 µM; binder
ULK3 = ULK3 (Homo sapiens, UniProt Q6PHR2); conditions: 1 µM; binder
VPS34 = VPS34 (Homo sapiens, UniProt Q8NEB9); conditions: 1 µM; binder

CNc1ncc2cc(-c3ccc(-c4cccc(C)n4)cc3Cl)c(=O)n(C[C@H]3OC[C@H](N)CO3)c2n1 [compound 6, G-5555] was tested, and the “Percent Control” value (ALK) was 84%, the “Percent Control” value (AURKA) was 43% and the “Percent Control” value (CAMK2G) was 100%. The “Percent Control” value (CDK4-cyclinD1) was 99%, the “Percent Control” value (CSNK1G2) was 83% and the “Percent Control” value (EGFR(L858R,T790M)) was 100%. For the same compound, the “Percent Control” value (EPHB6) was 9%, the “Percent Control” value (ERK8) was 100% and the “Percent Control” value (FLT4) was 100%. For the same compound, the “Percent Control” value (GAK) was 1.7%, the “Percent Control” value (GCN2(Kin.Dom.2,S808G)) was 63% and the “Percent Control” value (HCK) was 100%. The “Percent Control” value (HIPK2) was 100%, the “Percent Control” value (JAK3) was 90% and the “Percent Control” value (MYO3A) was 96%. For the same compound, the “Percent Control” value (NEK10) was 100%, the “Percent Control” value (PAK4) was 77% and the “Percent Control” value (PFTAIRE2) was 100%. For the same compound, the “Percent Control” value (PIK3CA(H1047L)) was 100%, the “Percent Control” value (PKN2) was 100% and the “Percent Control” value (PRKCI) was 63%. The “Percent Control” value (PRKG1) was 100%, the “Percent Control” value (PRKG2) was 94% and the “Percent Control” value (RET(M918T)) was 100%. For the same compound, the “Percent Control” value (ROS1) was 100%, the “Percent Control” value (SNRK) was 89% and the “Percent Control” value (SRMS) was 100%. For the same compound, the “Percent Control” value (ULK2) was 100%, the “Percent Control” value (ULK3) was 52% and the “Percent Control” value (VPS34) was 100%.

— publication doi:10.1101/2021.04.08.439011v1 (biorxiv, 2021)
